According to patent US20150209327A1, “METHODS FOR THE TREATMENT OF OBESITY USING APREMILAST” (Celgene Corporation, priority 2014, published 2015):
Several values for one entry are separate records, joined by “and”; a condition that tells them apart may be missing. Identical values can stand only once.

Key:
PDE7 = PDE7 (Homo sapiens, UniProt Q13946); experiment: PDE7 enzyme assay; type: biochemical
Method: PDE1, 2, 3 and 5 enzyme assays were prepared as described by Hidaka and Asano. Biochem. Biophys. Acta., 1976, 429:485; see also Nicholsen et al., Trends Pharmaco. Sci., 1991, 12:19. The PDE6 enzyme assay was prepared according to Baehr et al., J. Biol. Chem., 1979, 254:11669 and Gillespie et al., Mol. Pharm., 1989, 36: 773. The PDE7 enzyme assay was prepared according to Bloom and Beavo. Proc. Natl. Acad. Sci. USA, 1996, 93:14188-92.

[1] = Psoriatic Arthritis (PsA) Phase 3 Data Pool: weight change; type: in vivo, human; conditions: for Weight % Change Category 0%, n (%) / Weight % Change Category <−20%, n (%) / Weight % Change Category >0% to ≦5%, n (%) / Weight % Change Category >5% to ≦10%, n (%) / Weight % Change Category >10% to ≦20%, n (%) / Weight % Change Category >20%, n (%) / Weight % Change Category ≧−5% to <0%, n (%) / Weight % Change Category ≧−10% to <−5%, n (%) / Weight % Change Category ≧−20% to <−10%, n (%): Subjects as Treated; for observed weight loss of greater than 10%, subjects n (%) / percentage of subjects with weight change of -10% to <−5%: Weeks 0 to 16
Description: Apremilast has shown benefit of weight loss in both Phase 2 and Phase 3 Psoriatic Arthritis (PSA) and Psoriasis (PSOR) trials.

[2] = 20 mg BID, Apremilast-exposure Period, m = 943
[3] = 20 mg BID, End of Period (APR, apremilast exposure), Subjects as Initially Treated at Week 0
[4] = 20 mg BID, End of Period (PBC, Week 24), Subjects as Initially Treated at Week 0
[5] = 20 mg BID, End of Period (apremilast exposure), Apremilast Subjects as Treated
[6] = 20 mg BID, Week 52, Apremilast Subjects as Treated
[7] = 20 mg BID, Week 78, Apremilast Subjects as Treated
[8] = 30 mg BID, Apremilast-exposure Period, m = 944
[9] = 30 mg BID, End of Period (APR, apremilast exposure), Subjects as Initially Treated at Week 0
[10] = 30 mg BID, End of Period (PBC, Week 24), Subjects as Initially Treated at Week 0
[11] = 30 mg BID, End of Period (apremilast exposure), Apremilast Subjects as Treated
[12] = 30 mg BID, Week 52, Apremilast Subjects as Treated
[13] = 30 mg BID, Week 78, Apremilast Subjects as Treated

Chain of PDE7 (Q13946 whole entry): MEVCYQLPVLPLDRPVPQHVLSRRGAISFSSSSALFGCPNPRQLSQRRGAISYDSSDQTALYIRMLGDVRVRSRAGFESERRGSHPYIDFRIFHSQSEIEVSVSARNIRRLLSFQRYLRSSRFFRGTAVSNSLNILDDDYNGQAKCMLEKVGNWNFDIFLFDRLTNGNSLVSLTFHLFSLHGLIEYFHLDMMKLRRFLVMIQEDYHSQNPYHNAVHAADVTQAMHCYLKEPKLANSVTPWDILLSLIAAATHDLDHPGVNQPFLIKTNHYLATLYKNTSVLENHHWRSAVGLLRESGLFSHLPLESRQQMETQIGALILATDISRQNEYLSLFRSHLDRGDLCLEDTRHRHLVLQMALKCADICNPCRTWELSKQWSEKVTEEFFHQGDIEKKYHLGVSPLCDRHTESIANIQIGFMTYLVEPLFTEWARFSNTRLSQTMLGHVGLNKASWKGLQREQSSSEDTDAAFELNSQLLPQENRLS

CCOc1cc([C@@H](CS(C)(=O)=O)N2C(=O)c3cccc(NC(C)=O)c3C2=O)ccc1OC [Apremilast, (+)-2-[1-(3-ethoxy-4-methoxyphenyl)-2-methylsulfonylethyl]-4-acetylaminoisoindoline-1,3-dione]
IC50 (PDE7): 20.5 µM | weight decrease reported, subjects n (%) ([1]; 20 mg BID): 10 (1.0%) n (%) | weight loss of greater than 10%, subjects n (%) ([1]; 20 mg BID, Apremilast-exposure Period): 42 (4.5%) n (%) | Weight % Change Category 0%, n (%) [1, 2]: 74 (7.8) n (%) | Weight % Change Category <−20%, n (%) [1, 2]: 1 (0.1) n (%) | Weight % Change Category >0% to ≦5%, n (%) [1, 2]: 280 (29.7) n (%) | Weight % Change Category >5% to ≦10%, n (%) [1, 2]: 42 (4.5) n (%) | Weight % Change Category >10% to ≦20%, n (%) [1, 2]: 14 (1.5) n (%) | Weight % Change Category >20%, n (%) [1, 2]: 0 n (%) | Weight % Change Category ≧−5% to <0%, n (%) [1, 2]: 393 (41.7) n (%) | Weight % Change Category ≧−10% to <−5%, n (%) [1, 2]: 98 (10.4) n (%) | Weight % Change Category ≧−20% to <−10%, n (%) [1, 2]: 41 (4.3) n (%) | Change From Baseline (kg) Median (Min, Max) [1, 3]: −0.60 (−44.3, 14.0) kg | Weight, kg End of Period Mean ± SD [1, 3]: 84.38 ± 20.636 kg | Change From Baseline (kg) Mean ± SD ([1]; 20 mg BID, End of Period (APR, apremilast exposure), Subjects as Initially Treated at Week 0, listed as APR): -1.13 kg and -1.13 ± 4.491 kg | Change From Baseline (kg) Median (Min, Max) [1, 4]: −0.50 (−17.2, 11.5) kg | Weight, kg End of Period Mean ± SD [1, 4]: 84.47 ± 20.734 kg | Change From Baseline (kg) Mean ± SD ([1]; 20 mg BID, End of Period (PBC, Week 24), Subjects as Initially Treated at Week 0, listed as APR): -1.05 kg and -1.05 ± 3.366 kg | Change From Baseline (kg) Mean ± SD [1, 5]: -1.16 ± 4.255 kg | Change From Baseline (kg) Median (Min, Max) [1, 5]: −0.50 (−44.3, 14.0) kg | Weight, kg Time Point Mean ± SD [1, 5]: 84.65 ± 20.541 kg | Change From Baseline (kg) Median (Min, Max) [1, 6]: −1.00 (−26.0, 12.5) kg | Weight, kg Time Point Mean ± SD [1, 6]: 84.89 ± 20.190 kg | Change From Baseline (kg) Mean ± SD ([1]; 20 mg BID, Week 52, Apremilast Subjects as Treated, listed as APR): -1.25 kg and -1.25 ± 4.223 kg | Change From Baseline (kg) Median (Min, Max) [1, 7]: −1.00 (−44.3, 14.0) kg | Weight, kg Time Point Mean ± SD [1, 7]: 86.63 ± 19.721 kg | Change From Baseline (kg) Mean ± SD ([1]; 20 mg BID, Week 78, Apremilast Subjects as Treated, listed as APR): -1.70 kg and -1.70 ± 6.192 kg | Weight % Change Category 0%, n (%) ([1]; 20 mg BID, Weeks 0-16, m = 868): 122 (14.1) n (%) | Weight % Change Category <−20%, n (%) ([1]; 20 mg BID, Weeks 0-16, m = 868): 0 n (%) | Weight % Change Category >0% to ≦5%, n (%) ([1]; 20 mg BID, Weeks 0-16, m = 868): 260 (30.0) n (%) | Weight % Change Category >5% to ≦10%, n (%) ([1]; 20 mg BID, Weeks 0-16, m = 868): 13 (1.5) n (%) | Weight % Change Category >10% to ≦20%, n (%) ([1]; 20 mg BID, Weeks 0-16, m = 868): 1 (0.1) n (%) | Weight % Change Category >20%, n (%) ([1]; 20 mg BID, Weeks 0-16, m = 868): 0 n (%) | Weight % Change Category ≧−5% to <0%, n (%) ([1]; 20 mg BID, Weeks 0-16, m = 868): 431 (49.7) n (%) | Weight % Change Category ≧−10% to <−5%, n (%) ([1]; 20 mg BID, Weeks 0-16, m = 868): 35 (4.0) n (%) | Weight % Change Category ≧−20% to <−10%, n (%) ([1]; 20 mg BID, Weeks 0-16, m = 868): 6 (0.7) n (%) | observed weight loss of greater than 10%, subjects n (%) ([1]; 20 mg BID): 6 (0.7%) n (%) | percentage of subjects with weight change of -10% to <−5% ([1]; 20 mg BID): 4.0% | weight decrease reported, subjects n (%) ([1]; 30 mg BID): 15 (1.5%) n (%) | weight loss of greater than 10%, subjects n (%) ([1]; 30 mg BID, Apremilast-exposure Period): 36 (3.8%) n (%) | Weight % Change Category 0%, n (%) [1, 8]: 71 (7.5) n (%) | Weight % Change Category <−20%, n (%) [1, 8]: 0 n (%) | Weight % Change Category >0% to ≦5%, n (%) [1, 8]: 272 (28.8) n (%) | Weight % Change Category >5% to ≦10%, n (%) [1, 8]: 46 (4.9) n (%) | Weight % Change Category >10% to ≦20%, n (%) [1, 8]: 8 (0.8) n (%) | Weight % Change Category >20%, n (%) [1, 8]: 4 (0.4) n (%) | Weight % Change Category ≧−5% to <0%, n (%) [1, 8]: 387 (41.0) n (%) | Weight % Change Category ≧−10% to <−5%, n (%) [1, 8]: 120 (12.7) n (%) | Weight % Change Category ≧−20% to <−10%, n (%) [1, 8]: 36 (3.8) n (%) | Change From Baseline (kg) Median (Min, Max) [1, 9]: −1.00 (−23.0, 17.1) kg | Weight, kg End of Period Mean ± SD [1, 9]: 83.61 ± 19.766 kg | Change From Baseline (kg) Mean ± SD ([1]; 30 mg BID, End of Period (APR, apremilast exposure), Subjects as Initially Treated at Week 0, listed as APR): -1.26 kg and -1.26 ± 4.120 kg | Change From Baseline (kg) Median (Min, Max) [1, 10]: −0.60 (−13.7, 11.4) kg | Weight, kg End of Period Mean ± SD [1, 10]: 83.90 ± 19.670 kg | Change From Baseline (kg) Mean ± SD ([1]; 30 mg BID, End of Period (PBC, Week 24), Subjects as Initially Treated at Week 0, listed as APR): -0.97 kg and -0.97 ± 3.016 kg | Change From Baseline (kg) Mean ± SD [1, 11]: -0.96 ± 5.534 kg | Weight, kg Time Point Mean ± SD [1, 11]: 84.09 ± 20.309 kg | Change From Baseline (kg) Median (Min, Max) [1, 12]: −1.30 (−23.0, 11.8) kg | Weight, kg Time Point Mean ± SD [1, 12]: 84.16 ± 19.253 kg | Change From Baseline (kg) Mean ± SD ([1]; 30 mg BID, Week 52, Apremilast Subjects as Treated, listed as APR): -1.68 kg and -1.68 ± 4.049 kg | Change From Baseline (kg) Median (Min, Max) [1, 13]: −2.00 (−16.0, 17.1) kg | Weight, kg Time Point Mean ± SD [1, 13]: 83.53 ± 18.202 kg | Change From Baseline (kg) Mean ± SD ([1]; 30 mg BID, Week 78, Apremilast Subjects as Treated, listed as APR): -2.14 kg and -2.14 ± 4.605 kg | Weight % Change Category 0%, n (%) ([1]; 30 mg BID, Weeks 0-16, m = 857): 111 (13.0) n (%) | Weight % Change Category <−20%, n (%) ([1]; 30 mg BID, Weeks 0-16, m = 857): 0 n (%) | Weight % Change Category >0% to ≦5%, n (%) ([1]; 30 mg BID, Weeks 0-16, m = 857): 266 (31.0) n (%) | Weight % Change Category >5% to ≦10%, n (%) ([1]; 30 mg BID, Weeks 0-16, m = 857): 10 (1.2) n (%) | Weight % Change Category >10% to ≦20%, n (%) ([1]; 30 mg BID, Weeks 0-16, m = 857): 1 (0.1) n (%) | Weight % Change Category >20%, n (%) ([1]; 30 mg BID, Weeks 0-16, m = 857): 3 (0.4) n (%) | Weight % Change Category ≧−5% to <0%, n (%) ([1]; 30 mg BID, Weeks 0-16, m = 857): 424 (49.5) n (%) | Weight % Change Category ≧−10% to <−5%, n (%) ([1]; 30 mg BID, Weeks 0-16, m = 857): 35 (4.1) n (%) | Weight % Change Category ≧−20% to <−10%, n (%) ([1]; 30 mg BID, Weeks 0-16, m = 857): 7 (0.8) n (%) | observed weight loss of greater than 10%, subjects n (%) ([1]; 30 mg BID): 7 (0.8%) n (%) | percentage of subjects with weight change of -10% to <−5% ([1]; 30 mg BID): 4.1% | weight decrease reported, subjects n (%) ([1]; all subjects who received apremilast): 25 (1.3%) n (%) | body weight of the majority of subjects ([1]; regardless of duration of exposure): maintained their body weight within 0% and 5% of baseline
